Each structure is given as a SMILES string. “And” between values parts separate entries of the source, which are not always exact repeats. Identical values can stand only once. Inconclusive results and toxic doses are left out.

For this experiment, the system named is P388 leukemia ip, CD2F1 mice, survival T/C. In words: NCI In Vivo Anticancer Drug Screen. Data for tumor model P388 Leukemia (intraperitoneal) in CD2F1 (CDF1) mice. Particulars: endpoint: median survival time, higher = longer survival. An outline of the steps:
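Mice carrying the transplanted tumor received test compound or vehicle. Survival was recorded in each group, and the value is the treated-group measurement divided by that of the vehicle-treated control group.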

Setting [1] is: dose: 50.0 mg/kg/injection, schedule: Q01DX005 (ip), vehicle: Klucel (hydroxypropylcellulose) (HPC).
[2] abbreviates: dose: 100.0 mg/kg/injection, schedule: Q01DX005 (ip), vehicle: Klucel (hydroxypropylcellulose) (HPC).
The mark [3] stands for this setting: dose: 25.0 mg/kg/injection, schedule: Q01DX009 (ip), vehicle: saline with Tween-80.
[4] abbreviates: dose: 50.0 mg/kg/injection, schedule: Q01DX009 (ip), vehicle: saline with Tween-80.
Where [5] appears, read: dose: 100.0 mg/kg/injection, schedule: Q01DX009 (ip), vehicle: saline with Tween-80.
[6] abbreviates: dose: 60.0 mg/kg/injection, schedule: Q01DX005 (ip), vehicle: Klucel (hydroxypropylcellulose) (HPC).
[7] abbreviates: dose: 120.0 mg/kg/injection, schedule: Q01DX005 (ip), vehicle: Klucel (hydroxypropylcellulose) (HPC).
The mark [8] stands for this setting: dose: 240.0 mg/kg/injection, schedule: Q01DX005 (ip), vehicle: Klucel (hydroxypropylcellulose) (HPC).
Where [9] appears, read: dose: 60.0 mg/kg/injection, schedule: Q01DX005 (ip), vehicle: saline with Tween-80.
[10] abbreviates: dose: 60.0 mg/kg/injection, schedule: Q01DX005 (ip), vehicle: saline.
The mark [11] stands for this setting: dose: 120.0 mg/kg/injection, schedule: Q01DX005 (ip), vehicle: saline with Tween-80.
Where [12] appears, read: dose: 120.0 mg/kg/injection, schedule: Q01DX005 (ip), vehicle: saline.
[13] abbreviates: dose: 240.0 mg/kg/injection, schedule: Q01DX005 (ip), vehicle: saline with Tween-80.
Setting [14] is: dose: 50.0 mg/kg/injection, schedule: Q01DX009 (ip), vehicle: saline.
Where [15] appears, read: dose: 100.0 mg/kg/injection, schedule: Q01DX009 (ip), vehicle: saline.
The mark [16] stands for this setting: dose: 100.0 mg/kg/injection, schedule: Q04DX003 (ip), vehicle: saline with Tween-80.

For `CC(=O)Nc1cc(Cl)c2ncn(C3OC(CO)C(O)C3O)c2n1` (centres undefined), the T/C (dose: 25.0 mg/kg/injection, schedule: Q04DX003 (ip), vehicle: water) is 111 % of control; the T/C (dose: 50.0 mg/kg/injection, schedule: Q04DX003 (ip), vehicle: water) is 112 % of control; the T/C (dose: 100.0 mg/kg/injection, schedule: Q04DX003 (ip), vehicle: water) is 109 % of control; the T/C (dose: 200.0 mg/kg/injection, schedule: Q04DX003 (ip), vehicle: water) was 100 % of control; the T/C (dose: 400.0 mg/kg/injection, schedule: Q04DX003 (ip), vehicle: water) was 100 % of control.

For `CCCc1cc2ccccc2c2ccccc12`, the T/C was 102 % of control under setting [1]; 96 % of control under setting [2]; 99 % of control (dose: 200.0 mg/kg/injection, schedule: Q01DX005 (ip), vehicle: Klucel (hydroxypropylcellulose) (HPC)).

In the case of `Cc1ccc(S(=O)(=O)Cl)cc1Cl`, the T/C under setting [3] was 101 % of control, the T/C under setting [4] was 102 % of control and the T/C under setting [5] was 101 % of control.

Consider `O=C1OCCOCCSCCOCCOC(=O)c2cncc1c2`, for which the T/C is 104 % of control (dose: 100.0 mg/kg/injection, schedule: Q01DX001 (ip), vehicle: Klucel (hydroxypropylcellulose) (HPC)); 104 % of control (dose: 200.0 mg/kg/injection, schedule: Q01DX001 (ip), vehicle: Klucel (hydroxypropylcellulose) (HPC)); 101 % of control (dose: 400.0 mg/kg/injection, schedule: Q01DX001 (ip), vehicle: Klucel (hydroxypropylcellulose) (HPC)).

For the molecule `N=C(N)c1ccc(N=Nc2cc(/C=C/c3ccccc3)ccc2O)cc1`, the T/C was 110 % of control under setting [1] and 92 % of control under setting [2].

In the case of `CS/N=C(\c1ccccc1)N1CCOCC1`, the T/C is, setting by setting: under setting [6], 100 % of control; under setting [7], 98 % of control.

With `CC1(C)CC(C)(OC(=O)c2ccc(F)cc2)[N+]([O-])=N1` (centres undefined), the T/C was 115 % of control (dose: 4.7 mg/kg/injection, schedule: Q01DX009 (ip), vehicle: other); 112 % of control (dose: 9.4 mg/kg/injection, schedule: Q01DX009 (ip), vehicle: other); 106 % of control (dose: 18.8 mg/kg/injection, schedule: Q01DX009 (ip), vehicle: other); 120 % of control (dose: 37.5 mg/kg/injection, schedule: Q01DX009 (ip), vehicle: other); 106 % of control (dose: 75.0 mg/kg/injection, schedule: Q01DX009 (ip), vehicle: other); 101 % of control (dose: 150.0 mg/kg/injection, schedule: Q01DX009 (ip), vehicle: other).

For the molecule `O=NN(CCCl)C(=O)OCC(Cl)(Cl)Cl`, the T/C is, setting by setting: (dose: 3.12 mg/kg/injection, schedule: Q01DX001 (ip), vehicle: saline with Tween-80) 104 % of control; (dose: 6.25 mg/kg/injection, schedule: Q01DX001 (ip), vehicle: saline with Tween-80) 101 % of control; (dose: 12.5 mg/kg/injection, schedule: Q01DX001 (ip), vehicle: saline with Tween-80) 113 % of control; (dose: 25.0 mg/kg/injection, schedule: Q01DX001 (ip), vehicle: saline with Tween-80) 113 % of control and 117 % of control and 119 % of control; (dose: 50.0 mg/kg/injection, schedule: Q01DX001 (ip), vehicle: saline with Tween-80) 105 % of control and 120 % of control and 123 % of control; (dose: 100.0 mg/kg/injection, schedule: Q01DX001 (ip), vehicle: saline with Tween-80) 88 % of control.

Turning to `O=S(=O)(CS(=O)(=O)c1ccc(Br)cc1)c1ccc(Br)cc1`, the T/C was 102 % of control under setting [6], 107 % of control under setting [7] and 102 % of control under setting [8].

For `C[Si](C)(CNCCN)c1ccccc1`, the T/C under setting [9] is 101 % of control; the T/C under setting [10] was 91 % of control; the T/C under setting [11] was 105 % of control; the T/C under setting [12] is 93 % of control; the T/C under setting [13] is 101 % of control.

With `COC(=O)C1=C/C=C\CN(CCC2OCCO2)/C=C\1C(=O)OC`, the T/C is, setting by setting: (dose: 100.0 mg/kg/injection, schedule: Q01DX001 (ip), vehicle: alcohol) 99 % of control; (dose: 200.0 mg/kg/injection, schedule: Q01DX001 (ip), vehicle: alcohol) 100 % of control; (dose: 400.0 mg/kg/injection, schedule: Q01DX001 (ip), vehicle: alcohol) 100 % of control.

For `Oc1cc2c(cc1C(Nc1ccccn1)c1ccc3c(c1)OCO3)OCO2` (centres undefined), the T/C by setting is: under setting [9], 108 % of control; under setting [11], 108 % of control; under setting [13], 95 % of control.

As for `O=C(OCCO)c1c(Cl)c(Cl)c(Cl)c(Cl)c1-c1c2cc(Br)c(=O)c(Br)c-2oc2c(Br)c(O)c(Br)cc12`, the T/C under setting [10] was 94 % of control and the T/C under setting [12] is 92 % of control.

Take `CN(C)CCC(=O)c1cccs1`: the T/C runs as follows: under setting [14], 107 % of control; under setting [15], 105 % of control.

As to `C=C(NC(=O)C(=C)NC(=O)c1csc(C2=NC3c4csc(n4)C4NC(=O)c5csc(n5)C(C(C)(O)C(C)O)NC(=O)C5CSC(=N5)/C(=C/C)NC(=O)C(C(C)O)NC(=O)c5csc(n5)C3(CC2)NC(=O)C(C)NC(=O)C(=C)NC(=O)C(=C)NC(=O)C(C(C)C)NC2C=Cc3c(C(C)O)cc(nc3C2O)C(=O)OC4C)n1)C(N)=O` (centres undefined), the T/C under setting [14] was 150 % of control.

`O=C1c2cc(O)c(O)cc2C(=O)c2cc3c(cc21)OCO3`: the T/C under setting [9] was 97 % of control, the T/C under setting [11] was 90 % of control and the T/C under setting [13] was 90 % of control.

Turning to `NCCC1C2CC3CC(C2)CC1C3` (centres undefined), the T/C runs as follows: under setting [14], 88 % of control; under setting [15], 88 % of control.

With `CCOC(=O)c1ccc(NC(=S)Nc2ccccc2C(F)(F)F)cc1`, the T/C reads like this: (dose: 50.0 mg/kg/injection, schedule: Q01DX009 (ip), vehicle: Klucel (hydroxypropylcellulose) (HPC)) 100 % of control; (dose: 100.0 mg/kg/injection, schedule: Q01DX009 (ip), vehicle: Klucel (hydroxypropylcellulose) (HPC)) 100 % of control; (dose: 200.0 mg/kg/injection, schedule: Q01DX009 (ip), vehicle: Klucel (hydroxypropylcellulose) (HPC)) 92 % of control.

As for `CC(C)(C)C(=O)OCn1cc2c(=O)[nH]cnc2n1`, the T/C reads like this: under setting [6], 101 % of control; under setting [7], 100 % of control; under setting [8], 104 % of control.

Consider `CN(C)CCSC1=Nc2ccc(Cl)cc2C(c2ccccc2Cl)N(C)C1` (centres undefined), for which the T/C under setting [6] was 100 % of control and the T/C under setting [7] was 100 % of control.

Turning to `Cc1[nH]c(C(=O)NN)c(C)c1C(=O)NN`, the T/C by setting is: under setting [3], 91 % of control; under setting [4], 95 % of control; under setting [5], 91 % of control.

For `c1ccc(C2=NCC(c3ccccc3)(C3(c4ccccc4)SCCCS3)O2)cc1` (centres undefined), the T/C was 95 % of control under setting [16]; 97 % of control (dose: 200.0 mg/kg/injection, schedule: Q04DX003 (ip), vehicle: saline with Tween-80); 91 % of control (dose: 400.0 mg/kg/injection, schedule: Q04DX003 (ip), vehicle: saline with Tween-80).

Regarding `CCc1cc2c(cc1C(C)=O)C(C)(C)CCC2(C)C`, the T/C under setting [4] was 94 % of control and the T/C under setting [5] was 110 % of control.

In the case of `CC(=O)Nc1c(Cl)c(Cl)c2c(c1Cl)Cc1cc(Br)ccc1-2`, the T/C under setting [16] was 109 % of control.

In the case of `COc1ccc(OC)c(C2SCC(=O)N2c2nncs2)c1` (centres undefined), the T/C is, setting by setting: under setting [9], 104 % of control; under setting [11], 97 % of control; under setting [13], 97 % of control.

Source of the values: PubChem BioAssay AID330 (DTP/NCI, 2004).
